Counter-ions that a name gives are not always drawn. Like-named read-outs stand apart in the source and are kept apart here.
How the values were obtained:
Type in all cases: biochemical
[1] = biological target: T1, recombinant human MAO-A (monoamine oxidase-A) (Homo sapiens, UniProt P21397); experiment: Activity evaluation on recombinant human MAO-A (Amplex Red/HRP-coupled assay, 0.5 mM tyramine substrate); details: read-out: Inhibitory Activity (IC50, nM) MAO-A
T1 construct: purchased Sigma-Aldrich
T1 sequence (P21397 1-527): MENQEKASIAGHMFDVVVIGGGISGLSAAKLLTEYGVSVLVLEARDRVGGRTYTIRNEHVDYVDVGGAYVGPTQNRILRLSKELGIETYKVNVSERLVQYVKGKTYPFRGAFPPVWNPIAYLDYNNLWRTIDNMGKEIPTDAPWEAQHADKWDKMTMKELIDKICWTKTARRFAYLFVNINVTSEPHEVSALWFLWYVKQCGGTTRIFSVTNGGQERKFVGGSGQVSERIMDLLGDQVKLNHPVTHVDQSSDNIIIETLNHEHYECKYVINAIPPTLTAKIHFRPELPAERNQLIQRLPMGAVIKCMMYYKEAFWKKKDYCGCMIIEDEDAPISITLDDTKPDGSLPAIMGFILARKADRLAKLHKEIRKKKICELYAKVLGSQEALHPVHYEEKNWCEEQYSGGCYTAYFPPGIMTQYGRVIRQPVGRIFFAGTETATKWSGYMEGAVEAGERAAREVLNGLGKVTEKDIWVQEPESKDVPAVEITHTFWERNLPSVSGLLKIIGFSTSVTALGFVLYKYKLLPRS
Outline: (§1)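 Enzyme activity was measured as fluorescence rate (ex 544, em 590 nm) from resorufin formed by HRP-coupled H2O2 oxidation of 200 uM Amplex Red. Compounds were first incubated 30 min at 37 °C with enzyme at pH 7.4; substrates were 0.5 mM tyramine (MAO-A), 1 mM benzylamine (MAO-B) and 1 mM putrescine (DAO).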

[2] = biological target: T2, recombinant human VAP-1 (Homo sapiens, UniProt Q16853); experiment: Activity evaluation on recombinant human VAP-1 (Amplex Red/HRP-coupled hydrogen peroxide assay, benzylamine substrate); details: read-out: Inhibitory Activity (IC50, nM) human VAP-1
T2 construct: purchased R&D systems
T2 sequence (Q16853 1-763): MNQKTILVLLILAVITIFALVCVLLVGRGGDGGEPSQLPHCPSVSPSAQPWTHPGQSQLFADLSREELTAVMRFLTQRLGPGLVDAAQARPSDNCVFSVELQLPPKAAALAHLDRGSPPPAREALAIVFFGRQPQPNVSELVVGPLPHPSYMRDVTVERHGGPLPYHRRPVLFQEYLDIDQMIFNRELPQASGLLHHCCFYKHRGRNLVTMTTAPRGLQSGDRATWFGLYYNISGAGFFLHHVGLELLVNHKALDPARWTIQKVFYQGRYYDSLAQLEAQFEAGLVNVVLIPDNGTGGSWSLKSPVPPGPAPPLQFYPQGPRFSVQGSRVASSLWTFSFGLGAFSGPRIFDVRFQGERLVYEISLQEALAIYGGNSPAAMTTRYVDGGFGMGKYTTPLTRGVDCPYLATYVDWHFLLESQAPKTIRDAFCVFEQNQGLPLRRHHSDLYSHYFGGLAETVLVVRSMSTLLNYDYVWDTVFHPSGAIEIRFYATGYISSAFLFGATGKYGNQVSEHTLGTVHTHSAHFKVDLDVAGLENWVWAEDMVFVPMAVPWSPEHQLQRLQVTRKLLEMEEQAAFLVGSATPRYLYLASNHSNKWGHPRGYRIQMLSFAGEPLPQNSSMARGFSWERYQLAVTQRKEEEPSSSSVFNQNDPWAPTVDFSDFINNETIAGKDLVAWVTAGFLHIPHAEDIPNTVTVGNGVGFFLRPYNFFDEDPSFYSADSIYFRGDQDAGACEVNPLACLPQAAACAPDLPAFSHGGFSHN
Outline: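 Recombinant human VAP-1 in 50 mM sodium phosphate pH 7.4 preincubated 30 min at 37 °C with compound (8-point 1:3 series, <1% DMSO), then 1 mM benzylamine, 200 uM Amplex Red, 1 U/mL HRP added. H2O2-derived resorufin fluorescence (ex 544/em 590) followed 1–2 h; IC50 from four-parameter fit of rate inhibition.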

[3] = biological target: T3, recombinant human DAO (diamine oxidase) (Homo sapiens, UniProt P19801); experiment: Activity evaluation on recombinant human DAO (Amplex Red/HRP-coupled assay, 1 mM putrescine substrate); details: read-out: Inhibitory Activity (IC50, nM) DAO
T3 construct: purchased R&D systems
T3 sequence (P19801 20-751): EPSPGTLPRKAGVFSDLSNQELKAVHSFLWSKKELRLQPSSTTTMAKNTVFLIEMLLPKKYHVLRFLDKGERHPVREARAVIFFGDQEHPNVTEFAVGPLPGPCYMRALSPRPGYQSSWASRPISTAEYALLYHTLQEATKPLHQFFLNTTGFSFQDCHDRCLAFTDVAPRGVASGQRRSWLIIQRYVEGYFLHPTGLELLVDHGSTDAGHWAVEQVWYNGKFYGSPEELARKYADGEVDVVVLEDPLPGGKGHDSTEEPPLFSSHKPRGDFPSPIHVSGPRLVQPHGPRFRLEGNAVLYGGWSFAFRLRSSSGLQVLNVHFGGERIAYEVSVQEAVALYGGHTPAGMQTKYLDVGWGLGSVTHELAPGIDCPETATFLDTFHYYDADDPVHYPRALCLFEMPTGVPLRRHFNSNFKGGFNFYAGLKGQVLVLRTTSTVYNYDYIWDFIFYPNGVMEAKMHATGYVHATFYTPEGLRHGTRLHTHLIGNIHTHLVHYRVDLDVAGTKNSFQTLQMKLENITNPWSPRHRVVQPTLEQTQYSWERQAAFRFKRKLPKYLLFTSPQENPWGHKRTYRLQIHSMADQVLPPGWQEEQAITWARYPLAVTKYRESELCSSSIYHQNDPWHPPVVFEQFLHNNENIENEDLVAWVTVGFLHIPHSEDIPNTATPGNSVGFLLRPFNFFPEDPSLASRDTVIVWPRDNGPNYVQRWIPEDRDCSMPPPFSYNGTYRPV
Outline: as §1

[4] = biological target: T4, recombinant human MAO-B (monoamine oxidase-B) (Homo sapiens, UniProt P27338); experiment: Activity evaluation on recombinant human MAO-B (Amplex Red/HRP-coupled assay, 1 mM benzylamine substrate); details: read-out: Inhibitory Activity (IC50, nM) MAO-B
T4 construct: purchased Sigma-Aldrich
T4 sequence (P27338 1-520): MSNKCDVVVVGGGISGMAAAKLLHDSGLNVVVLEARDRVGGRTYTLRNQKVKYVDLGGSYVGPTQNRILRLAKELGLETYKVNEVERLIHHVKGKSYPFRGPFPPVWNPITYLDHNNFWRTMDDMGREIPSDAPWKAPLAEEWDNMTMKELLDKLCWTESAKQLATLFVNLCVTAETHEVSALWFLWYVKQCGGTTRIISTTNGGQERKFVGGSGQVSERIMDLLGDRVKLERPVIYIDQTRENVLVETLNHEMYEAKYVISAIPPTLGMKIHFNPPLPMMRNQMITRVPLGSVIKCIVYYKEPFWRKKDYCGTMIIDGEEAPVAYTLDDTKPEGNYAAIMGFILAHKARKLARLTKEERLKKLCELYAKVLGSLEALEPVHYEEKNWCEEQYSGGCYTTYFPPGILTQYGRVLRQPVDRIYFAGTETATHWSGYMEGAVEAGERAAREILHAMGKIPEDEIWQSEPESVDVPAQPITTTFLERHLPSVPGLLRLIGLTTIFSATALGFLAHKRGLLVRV
Outline: as §1

[5] = recombinant human VAP-1, 30 min preincubation at 37° C., 1 mM benzylamine
[6] = recombinant human VAP-1, benzylamine substrate

Row | Structure (SMILES) | IC50 ([1]; 0.5 mM tyramine) [nM] | IC50 [2, 5] [nM] | IC50 ([3]; 1 mM putrescine) [nM] | IC50 ([4]; 1 mM benzylamine) [nM] | IC50 ([1]; 0.5 mM tyramine substrate) [nM] | IC50 [2, 6] [nM] | IC50 ([3]; 1 mM putrescine substrate) [nM] | IC50 ([4]; 1 mM benzylamine substrate) [nM]
1 | CN(C)c1ccc(-c2cccc(-n3cnn(CC(CN)=C(F)F)c3=O)c2)cn1 [Example 20, 2-[2-(aminomethyl)-3,3-difluoro-allyl]-4-[3-[6-(dimethylamino)-3-pyridyl]phenyl]-1,2,4-triazol-3-one Trifluoroacetate] | > 100000 | 2.1 | 350 | > 100000 |  |  |  | 
2 | CN(C)c1ccc(-c2ccc(-n3cnn(CC(CN)=C(F)F)c3=O)cc2F)cn1 [Example 27, 2-[2-(aminomethyl)-3,3-difluoro-allyl]-4-[4-[6-(dimethylamino)-3-pyridyl]-3-fluoro-phenyl]-1,2,4-triazol-3-one Trifluoroacetate] | > 100000 | 0.4 | 380 | 350 |  |  |  | 
3 | Cc1cc(-c2cccc(N3CCNCC3)c2)cnc1-n1cnn(CC(CN)=C(F)F)c1=O [Example 235, 2-[2-(aminomethyl)-3,3-difluoro-allyl]-4-[3-methyl-5-(3-piperazin-1-ylphenyl)-2-pyridyl]-1,2,4-triazol-3-one Ditrifluoroacetate] |  |  |  |  | > 100000 | 1.4 | > 100000 | 840
4 | CS(=O)(=O)c1ccc(-c2ccc(Cn3cnn(CC(CN)=C(F)F)c3=O)cc2)cc1 [Example 265, 2-[2-(aminomethyl)-3,3-difluoro-allyl]-4-[[4-(4-methylsulfonylphenyl)phenyl]methyl]-1,2,4-triazol-3-one Trifluoroacetate] |  |  |  |  | > 100000 | 1.4 | > 100000 | > 100000
5 | Cc1cc(-c2ccc(S(C)(=O)=O)cc2)sc1Cn1cnn(CC(CN)=C(F)F)c1=O [Example 154, 2-[2-(aminomethyl)-3,3-difluoro-allyl]-4-[[3-methyl-5-(4-methylsulfonylphenyl)-2-thienyl]methyl]-1,2,4-triazol-3-one Trifluoroacetate] | > 100000 | 4 | 21000 | > 100000 |  |  |  | 
6 | NCC(Cn1ncn(-c2ccc(-c3ccc(C(F)(F)F)nc3)c(F)c2)c1=O)=C(F)F [Example 26, 2-[2-(aminomethyl)-3,3-difluoro-allyl]-4-[3-fluoro-4-[6-(trifluoromethyl)-3-pyridyl]phenyl]-1,2,4-triazol-3-one Trifluoroacetate] | > 100000 | 0.7 | 71 | 180 |  |  |  | 
7 | CCn1cc(-c2ccc(-n3cnn(CC(CN)=C(F)F)c3=O)c(F)c2)cn1 [Example 37, 2-[2-(aminomethyl)-3,3-difluoro-allyl]-4-[4-(1-ethylpyrazol-4-yl)-2-fluoro-phenyl]-1,2,4-triazol-3-one Trifluoroacetate] | > 100000 | 0.5 | 860 | 880 |  |  |  | 
8 | CN1C(=O)COc2cc(-c3ccc(Cn4cnn(CC(CN)=C(F)F)c4=O)s3)ccc21 [Example 144, 7-[5-[[1-[2-(aminomethyl)-3,3-difluoro-allyl]-5-oxo-1,2,4-triazol-4-yl]methyl]-2-thienyl]-4-methyl-1,4-benzoxazin-3-one Trifluoroacetate] | > 100000 | 0.7 | > 10000 | > 100000 |  |  |  | 
9 | NCC(Cn1ncn(Cc2ccc(/C=C/c3cnc4c(c3)NC(=O)CO4)s2)c1=O)=C(F)F [Example 161, 7-[(E)-2-[5-[[1-[2-(aminomethyl)-3,3-difluoro-allyl]-5-oxo-1,2,4-triazol-4-yl]methyl]-2-thienyl]vinyl]-1H-pyrido[2,3-b][1,4]oxazin-2-one Trifluoroacetate] | > 100000 | 0.2 | 54000 | > 100000 |  |  |  | 
10 | NCC(Cn1ncn(Cc2ccc(-c3ccc(N4CCNCC4)cc3)s2)c1=O)=C(F)F [Example 106, 2-[2-(aminomethyl)-3,3-difluoro-allyl]-4-[[5-(4-piperazin-1-ylphenyl)-2-thienyl]methyl]-1,2,4-triazol-3-one Ditrifluoroacetate] | > 100000 | 4.7 | 860 | > 100000 |  |  |  | 
11 | NCC(Cn1ncn(-c2ccc(-c3ccc4c(c3)OCO4)nc2)c1=O)=C(F)F [Example 42, 2-[2-(aminomethyl)-3,3-difluoro-allyl]-4-[6-(1,3-benzodioxol-5-yl)-3-pyridyl]-1,2,4-triazol-3-one Trifluoroacetate] | > 100000 | 0.3 | 250 | 34 |  |  |  | 
12 | Cc1c(-c2ccc3c(c2)OCO3)cccc1-n1cnn(CC(CN)=C(F)F)c1=O [Example 257, 2-[2-(aminomethyl)-3,3-difluoro-allyl]-4-[3-(1,3-benzodioxol-5-yl)-2-methyl-phenyl]-1,2,4-triazol-3-one Trifluoroacetate] |  |  |  |  | > 100000 | 2.4 | > 100000 | 101000
13 | CN(C)c1ccc(-c2cccc(-n3cnn(CC(CN)=C(F)F)c3=O)n2)cn1 [Example 49, 2-[2-(aminomethyl)-3,3-difluoro-allyl]-4-[6-[6-(dimethylamino)-3-pyridyl]-2-pyridyl]-1,2,4-triazol-3-one Trifluoroacetate] | > 100000 | 1.6 | 490 | > 100000 |  |  |  | 

Reference: patent US11168073B2, “3,3-difluoroallylamines or salts thereof and pharmaceutical compositions comprising the same” (YUHAN CORPORATION, priority 2018, dated 2021)
